Reference: PMC13022235 (Nature Communications, 2026)
Where a chain is given by its changes, count along the chain named. “Also recorded” adds a separate entry of the source.

Columns and labels:
[1] = tested on: chronic constriction injury (CCI) mice; experiment: CCI model, cold allodynia; type: in vivo, mouse; details: for reduction of cold allodynia vs vehicle: acetone
male C57BL/6 J mice = experiment: Conditioned place preference; type: in vivo, mouse
hGlyT2^D633E [2] = target: T1, hGlyT2^D633E (Homo sapiens, UniProt Q9Y345, D633E); type: cell-based; details: D633E mutation
T1 sequence (Q9Y345 1-797 D633E): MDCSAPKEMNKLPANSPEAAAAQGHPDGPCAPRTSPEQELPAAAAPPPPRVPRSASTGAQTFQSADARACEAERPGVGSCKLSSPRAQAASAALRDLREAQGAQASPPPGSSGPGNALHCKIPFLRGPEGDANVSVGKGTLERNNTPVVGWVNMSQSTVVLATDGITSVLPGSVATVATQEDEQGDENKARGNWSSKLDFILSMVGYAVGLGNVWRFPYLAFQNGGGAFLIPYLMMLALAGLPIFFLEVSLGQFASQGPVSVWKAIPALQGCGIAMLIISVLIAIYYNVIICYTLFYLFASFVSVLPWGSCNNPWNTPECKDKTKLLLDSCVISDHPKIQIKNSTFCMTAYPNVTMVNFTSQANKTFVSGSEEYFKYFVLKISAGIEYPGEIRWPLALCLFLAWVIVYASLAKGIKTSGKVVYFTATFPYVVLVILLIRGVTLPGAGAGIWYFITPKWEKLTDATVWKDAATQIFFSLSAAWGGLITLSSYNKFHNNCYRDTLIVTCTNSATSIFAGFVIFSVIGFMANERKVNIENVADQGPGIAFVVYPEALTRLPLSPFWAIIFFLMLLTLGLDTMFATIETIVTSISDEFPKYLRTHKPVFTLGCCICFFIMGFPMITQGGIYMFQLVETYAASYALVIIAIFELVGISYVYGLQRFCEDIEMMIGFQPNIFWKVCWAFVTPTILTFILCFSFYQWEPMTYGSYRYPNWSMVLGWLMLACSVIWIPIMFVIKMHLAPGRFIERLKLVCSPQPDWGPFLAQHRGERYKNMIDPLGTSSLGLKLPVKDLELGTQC

hGlyT2^WT [3] = target: T2, hGlyT2^WT (Homo sapiens, UniProt Q9Y345); experiment: Reversibility from inhibition; type: cell-based
T2 sequence (Q9Y345 1-797): T1 sequence (Q9Y345 1-797 D633E) with E633D

mice [4] = details: cited from earlier work
hGlyT2^W215F [5] = target: T3, hGlyT2^W215F (Homo sapiens, UniProt Q9Y345, W215F); experiment: Reversibility from inhibition; type: cell-based
T3 sequence (Q9Y345 1-797 W215F): T1 sequence (Q9Y345 1-797 D633E) with W215F, E633D

hGlyT2^W215F [6] = target: T3, hGlyT2^W215F; type: cell-based
[7] = tested on: chronic constriction injury (CCI) mice; experiment: CCI model, mechanical allodynia; type: in vivo, mouse
naïve mice = experiment: Accelerating rotarod, motor coordination; type: in vivo, mouse
naïve, uninjured mice = experiment: Whole-body plethysmography; type: in vivo, mouse
hDAT = hDAT (Homo sapiens, UniProt Q01959); experiment: Cerep binding assay, displacement of 3H-BTCP; details: 10 μM
hDAT, sequence (Q01959 whole entry): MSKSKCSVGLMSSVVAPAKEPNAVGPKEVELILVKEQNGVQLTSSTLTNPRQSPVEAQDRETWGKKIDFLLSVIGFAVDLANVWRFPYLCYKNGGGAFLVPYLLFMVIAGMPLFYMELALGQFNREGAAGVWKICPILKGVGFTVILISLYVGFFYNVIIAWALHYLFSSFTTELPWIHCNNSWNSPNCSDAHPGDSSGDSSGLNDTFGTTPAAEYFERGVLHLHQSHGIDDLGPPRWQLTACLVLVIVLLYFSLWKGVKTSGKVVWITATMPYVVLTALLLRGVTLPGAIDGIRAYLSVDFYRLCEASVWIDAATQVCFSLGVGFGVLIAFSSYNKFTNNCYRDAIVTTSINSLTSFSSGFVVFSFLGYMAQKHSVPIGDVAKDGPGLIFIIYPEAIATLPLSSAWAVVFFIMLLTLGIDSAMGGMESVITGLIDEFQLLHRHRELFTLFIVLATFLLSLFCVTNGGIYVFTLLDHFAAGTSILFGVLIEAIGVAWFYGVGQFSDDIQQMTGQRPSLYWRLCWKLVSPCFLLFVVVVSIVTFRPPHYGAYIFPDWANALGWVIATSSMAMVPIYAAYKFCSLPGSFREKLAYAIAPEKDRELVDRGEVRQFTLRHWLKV

hNET = hNET (Homo sapiens, UniProt P23975); experiment: Cerep binding assay, displacement of 3H-nisoxetine; details: 10 μM
hNET, sequence (P23975 whole entry): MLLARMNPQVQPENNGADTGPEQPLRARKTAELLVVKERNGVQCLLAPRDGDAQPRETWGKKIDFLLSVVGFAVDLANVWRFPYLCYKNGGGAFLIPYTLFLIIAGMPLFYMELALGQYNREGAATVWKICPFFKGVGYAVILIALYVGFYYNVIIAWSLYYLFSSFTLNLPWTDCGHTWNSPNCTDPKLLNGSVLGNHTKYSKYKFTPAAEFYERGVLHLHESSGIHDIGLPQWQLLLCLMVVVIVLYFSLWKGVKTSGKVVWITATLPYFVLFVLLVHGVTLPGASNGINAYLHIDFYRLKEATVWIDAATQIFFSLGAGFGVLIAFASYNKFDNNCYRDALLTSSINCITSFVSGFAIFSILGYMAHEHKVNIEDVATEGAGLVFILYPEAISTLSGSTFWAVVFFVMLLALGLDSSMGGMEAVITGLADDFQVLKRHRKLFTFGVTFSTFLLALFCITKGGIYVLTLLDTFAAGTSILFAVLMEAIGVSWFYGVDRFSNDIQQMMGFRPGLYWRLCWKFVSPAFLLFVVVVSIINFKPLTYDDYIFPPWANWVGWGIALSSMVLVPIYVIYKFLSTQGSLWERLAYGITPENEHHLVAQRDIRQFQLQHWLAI

hGlyT1^WT = target: T4, hGlyT1^WT (Homo sapiens, UniProt P48067); experiment: Two-electrode voltage clamp, GlyT1 selectivity test in oocytes; type: cell-based; details: 10 µM
T4 sequence (P48067 1-706): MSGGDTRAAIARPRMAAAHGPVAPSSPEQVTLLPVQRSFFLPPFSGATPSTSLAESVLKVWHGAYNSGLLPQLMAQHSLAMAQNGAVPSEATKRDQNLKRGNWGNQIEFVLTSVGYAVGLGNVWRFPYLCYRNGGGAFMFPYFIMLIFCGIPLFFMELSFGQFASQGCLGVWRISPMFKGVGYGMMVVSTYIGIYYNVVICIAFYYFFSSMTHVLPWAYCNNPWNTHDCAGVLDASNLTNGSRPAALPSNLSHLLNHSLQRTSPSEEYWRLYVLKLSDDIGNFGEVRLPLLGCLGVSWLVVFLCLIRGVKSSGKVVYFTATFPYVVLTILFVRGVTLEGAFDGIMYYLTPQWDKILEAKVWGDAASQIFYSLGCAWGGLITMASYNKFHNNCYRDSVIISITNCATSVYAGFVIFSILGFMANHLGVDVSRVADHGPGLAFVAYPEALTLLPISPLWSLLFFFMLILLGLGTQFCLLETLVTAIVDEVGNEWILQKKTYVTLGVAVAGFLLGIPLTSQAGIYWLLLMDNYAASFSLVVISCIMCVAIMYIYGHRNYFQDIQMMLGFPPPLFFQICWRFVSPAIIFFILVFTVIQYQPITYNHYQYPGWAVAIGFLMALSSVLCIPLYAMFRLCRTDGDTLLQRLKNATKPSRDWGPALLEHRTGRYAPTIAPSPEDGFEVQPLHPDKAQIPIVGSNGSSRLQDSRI

[8] = tested on: partial sciatic nerve ligation (PSNL) mice; experiment: PSNL model, mechanical allodynia; type: in vivo, mouse; details: 50 mg/kg i.p.
[9] = PK Study 2: in-life plasma and CNS drug exposure after 50 mg/kg i.p.; type: in vivo, male C57BL/6 mice; details: 30 min
mice [10] = experiment: Side effect scoring; type: in vivo, mouse; details: 250 mg/kg i.p.
hGlyT2^WT [11] = target: T2, hGlyT2^WT; type: cell-based; details: glycine dose-responses with RPI-GLYT2-82
hGlyT2^D633E [12] = target: T1, hGlyT2^D633E; experiment: Reversibility from inhibition; type: cell-based; details: GlyT2^D633E
GlyT2 = details: read-out: IC50 for GlyT2; cited from earlier work

NCC1(CC(=O)O)CCCCC1 [Gabapentin, reference compound]
reduction of cold allodynia vs vehicle ([1]; gabapentin 100 mg/kg): significant at 1-6 hours

CN1CC[C@]23c4c5ccc(O)c4O[C@H]2[C@@H](O)C=C[C@H]3[C@H]1C5 [Morphine, reference compound]
conditioned place preference (male C57BL/6 J mice; morphine 10 mg/kg i.p.): significant increase in preference for the paired chamber

COc1cc(C(=O)NCC2(N(C)C)CCCC2)cc(OC)c1OCc1ccccc1 [ORG25543, 4-(benzyloxy)-N-{[1-(dimethylamino)cyclopentyl]methyl}−3,5-dimethoxybenzamide]
decrease in potency of inhibition vs WT (hGlyT2^D633E [2]): ~ 14 fold
reversibility of inhibition (hGlyT2^WT [3]; hGlyT2, washout 30 min): prolonged inhibitory effects with minimal restoration of glycine-induced currents
currents restored, % of pre-inhibitor levels (hGlyT2^WT [3]; hGlyT2^WT, 30 minutes washout): 12.5%
mechanical allodynia (mice [4]; 50 mg/kg): reversed mechanical allodynia
side effects (mice [4]; 50 mg/kg): near-complete loss of rotarod performance, seizures and in one case, lethality
effects on inflammatory and acute nociceptive pain thresholds (mice [4]): no effects on inflammatory and acute nociceptive pain thresholds
effect of mutation on washout (hGlyT2^W215F [5]; hGlyT2^W215F): significantly increased the rate of ORG25543 washout
decrease in potency of inhibition vs WT (hGlyT2^W215F [6]; W215F mutation): ~ three-fold

CN(C)C1(CNC(=O)c2ccc3c(c2)CCN3C(=O)c2ccccc2)CCOCC1 [RPI-GLYT2-82, 1-benzoyl-N-((4-(dimethylamino)tetrahydro-2H-pyran-4-yl)methyl)indoline-5-carboxamide]
efficacy against mechanical allodynia vs vehicle ([7]; 50 mg/kg i.p.): significant at 2 and 3 hours post-injection compared to vehicle
efficacy against mechanical allodynia vs vehicle ([7]; 100 mg/kg i.p.): showed a similar trend at 2 and 3 hours
anti-allodynia, time of maximum efficacy ([7]; von Frey, 50 and 100 mg/kg i.p.): maximum efficacy between 90 min and 3 hours post-administration
decrease in potency of inhibition vs WT (hGlyT2^D633E [2]): > 18 fold
neuromotor effects / muscle weakness (naïve mice; 50 mg/kg, rotarod, grip strength, sedation): No deficits were observed; also recorded: not associated with adverse neuromotor effects or muscle weakness
initial reduction in baseline rotarod performance (naïve mice; 250 mg/kg i.p.): 61%
respiration (naïve, uninjured mice; 50 mg/kg): did not change respiration frequency, minute volume (MVb), or tidal volume (TVb)
respiration (naïve, uninjured mice; 250 mg/kg i.p.): transient changes in respiratory frequency and MVb in the first hour, and TVb in the first 30 min
displacement of 3H-BTCP from hDAT / inhibition (hDAT): ~ 20%
time of peak anti-allodynia effects, cold allodynia ([1]; 50 and 100 mg/kg i.p.): ≤ 2 h
reduction of cold allodynia vs vehicle ([1]; 50 and 100 mg/kg i.p.): significantly reduced cold allodynia between 0.5 and 6-hours postinjection compared to vehicle
conditioned place preference (male C57BL/6 J mice; 50 and 150 mg/kg i.p.): no significant preference
displacement of 3H-nisoxetine from hNET / inhibition (hNET): < 5%
effect on GlyT1 (hGlyT1^WT): minimal effect on GlyT1
reduction of mechanical allodynia vs vehicle [8]: significant at 90 minutes and 2-hours post-injection compared to vehicle
Cu,b, calculated unbound concentration in brain [9]: 597.89 nM
washout (hGlyT2^W215F [5]; GlyT2^W215F): almost immediate
sedation (mice [10]): transient sedation, which was most apparent in the first 15–30 minutes and fully recovered by 90 minutes
IC50 (hGlyT2^W215F [6]): > 30000 nM
mechanism of inhibition (hGlyT2^WT [11]): non-competitive inhibitor
washout (hGlyT2^D633E [12]): almost immediate

CCCCCCCC/C=C\CCCCCCCC(=O)N[C@H](CCCCN)C(=O)O [oleoyl-D-lysine]
effects on inflammatory and acute nociceptive pain thresholds (mice [4]): no effects on inflammatory and acute nociceptive pain thresholds

CCCCOc1c(OC)cc(C(=O)NCC2(N(C)C)CCOCC2)cc1OC [opiranserin]
IC50 (GlyT2): 860 nM
